PubChem BioAssay AID1963837 (Molecular Pharmacology Branch, DTP, NCI, 2024)

System: 843126-344-R-J1-PDC complex spheroid viability
Assay: Anticancer human tumor 843126-344-R-J1-PDC patient-derived melanoma cell line growth inhibition [POLQ]
Conditions: for IC50: curve of first compound; for viability, T/C: stronger effect = lower value
In short: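 Growth inhibition in 3D: complex spheroids (tumor PDC, HUVEC, MSC) treated with POLQ inhibitor combinations; where Cmax unknown, highest tested concentration 10 microM, except SN-38 at 1 microM.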

[1] = second compound 0.0316 µM, first compound 0.0316 µM
[2] = second compound 0.0316 µM, first compound 0.1 µM
[3] = second compound 0.1 µM, first compound 0.0316 µM
[4] = second compound 0.1 µM, first compound 0.1 µM
[5] = second compound 0.316 µM, first compound 0.0316 µM
[6] = second compound 0.316 µM, first compound 0.1 µM
[7] = second compound 1 µM, first compound 0.0316 µM
[8] = second compound 1 µM, first compound 0.1 µM
[9] = second compound 3.16 µM, first compound 0.0316 µM
[10] = second compound 3.16 µM, first compound 0.1 µM
[11] = second compound 10 µM, first compound 0.0316 µM
[12] = second compound 10 µM, first compound 0.1 µM
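For viability, T/C in this document: spheroids exposed to drugs for seven days before readout.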

C#Cc1c(F)ccc2cc(O)cc(-c3ncc4c(N5CC6CCC(C5)N6)nc(OCC56CCCN5CC(F)C6)nc4c3F)c12 (centres undefined) + Cc1cccc(N(C)C(=O)C2C(O)CCN2c2nc(C)cc(C(F)(F)F)c2C#N)c1
IC50 (second compound 0.0316 µM): > 10000 nM | IC50 (second compound 0.1 µM): > 10000 nM | IC50 (second compound 0.316 µM): > 10000 nM | IC50 (second compound 1 µM): > 10000 nM | IC50 (second compound 3.16 µM): > 10000 nM | IC50 (second compound 10 µM): > 10000 nM | viability, T/C [1]: 88% | viability, T/C [2]: 81.1% | viability, T/C (second compound 0.0316 µM, first compound 0.316 µM): 79.9% | viability, T/C (second compound 0.0316 µM, first compound 1 µM): 71.3% | viability, T/C (second compound 0.0316 µM, first compound 3.16 µM): 95.8% | viability, T/C (second compound 0.0316 µM, first compound 10 µM): 74% | viability, T/C [3]: 103% | viability, T/C [4]: 98.6% | viability, T/C (second compound 0.1 µM, first compound 0.316 µM): 92.9% | viability, T/C (second compound 0.1 µM, first compound 1 µM): 76% | viability, T/C (second compound 0.1 µM, first compound 3.16 µM): 118% | viability, T/C (second compound 0.1 µM, first compound 10 µM): 79.6% | viability, T/C [5]: 96.1% | viability, T/C [6]: 105% | viability, T/C (second compound 0.316 µM, first compound 0.316 µM): 91.2% | viability, T/C (second compound 0.316 µM, first compound 1 µM): 80.2% | viability, T/C (second compound 0.316 µM, first compound 3.16 µM): 75.4% | viability, T/C (second compound 0.316 µM, first compound 10 µM): 77.4% | viability, T/C [7]: 77.1% | viability, T/C [8]: 106% | viability, T/C (second compound 1 µM, first compound 0.316 µM): 82.8% | viability, T/C (second compound 1 µM, first compound 1 µM): 89.9% | viability, T/C (second compound 1 µM, first compound 3.16 µM): 91.2% | viability, T/C (second compound 1 µM, first compound 10 µM): 79% | viability, T/C [9]: 83.5% | viability, T/C [10]: 80.3% | viability, T/C (second compound 3.16 µM, first compound 0.316 µM): 87.3% | viability, T/C (second compound 3.16 µM, first compound 1 µM): 93.7% | viability, T/C (second compound 3.16 µM, first compound 3.16 µM): 82.7% | viability, T/C (second compound 3.16 µM, first compound 10 µM): 69.8% | viability, T/C [11]: 102% | viability, T/C [12]: 80.1% | viability, T/C (second compound 10 µM, first compound 0.316 µM): 95.5% | viability, T/C (second compound 10 µM, first compound 1 µM): 85.9% | viability, T/C (second compound 10 µM, first compound 3.16 µM): 91.6% | viability, T/C (second compound 10 µM, first compound 10 µM): 61.8%

CC[C@@]1(O)C(=O)OCc2c1cc1n(c2=O)Cc2cc3c(CN(C)C)c(O)ccc3nc2-1 + Cc1cccc(N(C)C(=O)C2C(O)CCN2c2nc(C)cc(C(F)(F)F)c2C#N)c1
IC50 (second compound 0.0316 µM): > 100 nM | IC50 (second compound 0.1 µM): > 100 nM | IC50 (second compound 0.316 µM): > 100 nM | IC50 (second compound 1 µM): > 100 nM | IC50 (second compound 3.16 µM): > 100 nM | IC50 (second compound 10 µM): 97.2 nM | viability, T/C (second compound 0.0316 µM, first compound 0.000316 µM): 98% | viability, T/C (second compound 0.0316 µM, first compound 0.001 µM): 105% | viability, T/C (second compound 0.0316 µM, first compound 0.00316 µM): 89.8% | viability, T/C (second compound 0.0316 µM, first compound 0.01 µM): 103% | viability, T/C [1]: 59.9% | viability, T/C [2]: 52.5% | viability, T/C (second compound 0.1 µM, first compound 0.000316 µM): 86% | viability, T/C (second compound 0.1 µM, first compound 0.001 µM): 92.9% | viability, T/C (second compound 0.1 µM, first compound 0.00316 µM): 110% | viability, T/C (second compound 0.1 µM, first compound 0.01 µM): 80.9% | viability, T/C [3]: 67.1% | viability, T/C [4]: 59.7% | viability, T/C (second compound 0.316 µM, first compound 0.000316 µM): 106% | viability, T/C (second compound 0.316 µM, first compound 0.001 µM): 102% | viability, T/C (second compound 0.316 µM, first compound 0.00316 µM): 93.1% | viability, T/C (second compound 0.316 µM, first compound 0.01 µM): 83.9% | viability, T/C [5]: 70.7% | viability, T/C [6]: 58.5% | viability, T/C (second compound 1 µM, first compound 0.000316 µM): 78.1% | viability, T/C (second compound 1 µM, first compound 0.001 µM): 113% | viability, T/C (second compound 1 µM, first compound 0.00316 µM): 89.3% | viability, T/C (second compound 1 µM, first compound 0.01 µM): 90.3% | viability, T/C [7]: 74% | viability, T/C [8]: 52.8% | viability, T/C (second compound 3.16 µM, first compound 0.000316 µM): 101% | viability, T/C (second compound 3.16 µM, first compound 0.001 µM): 96.1% | viability, T/C (second compound 3.16 µM, first compound 0.00316 µM): 108% | viability, T/C (second compound 3.16 µM, first compound 0.01 µM): 105% | viability, T/C [9]: 70% | viability, T/C [10]: 52.3% | viability, T/C (second compound 10 µM, first compound 0.000316 µM): 84.6% | viability, T/C (second compound 10 µM, first compound 0.001 µM): 83.9% | viability, T/C (second compound 10 µM, first compound 0.00316 µM): 74.6% | viability, T/C (second compound 10 µM, first compound 0.01 µM): 87.8% | viability, T/C [11]: 66.6% | viability, T/C [12]: 49.6%
